Measurements: patent publication US20050020544A1, “Bicyclic CB2 cannabinoid receptor ligands” (priority 2002, published 2005)
pIC50: −log10 of the molar value.

Legend:
[1] = molecular target: human CB2 receptor (Homo sapiens, UniProt P34972); assay: Adenylylcyclase assay: forskolin-activated cAMP in CB2 transfected HEK-293 cells; type: cell-based; details: HEK293, read-out: % inhibition at 1 μM; CB2 receptor transfected HEK-293, 1 μM forskolin
Method: (§1) Cannabinoids and derivatives bind to G-protein-coupled CB1 and CB2 receptors and exert their activity via the inhibition of adenylylcyclase activity. An adenylylcyclase assay forms a basis for the functional analysis of the compounds by determining their capacity to inhibit or promote forskolin-activated cAMP production. The assay is carried out according to Chin et al. (Chin, C. N. et al., J. Neurochem. 70: 366-73, 1998). Briefly, HEK-293 human kidney cells (ATCC#CRL-1573) stably transfected with either the human CB1 or CB2 receptor (cDNA) were grown in DMEM supplemented with 10% fetal calf serum, 1% Penicillin-Streptomycin and 2 mM L-glutamine. Cells were seeded in 24 wells plate at 5×10^4 cells/well and incubated for 48 hours. Medium was then removed and the adherent cells were washed with PBS. Two hundred μl of serum free medium supplemented with 0.2 mM Ro 20-1724, 0.25% BSA, and 20 mM HEPES was then added to each well. The cells were then activated with 1 μM forskolin in presence of the bicyclic test compounds in concentrations ranging from 10 pM up to 1 μM. The activated cells were then incubated at 37° C. for 20 minutes and the reaction terminated with 1.2 M HCl to a final concentration of 0.1 M. Cells were lyzed by freeze and thaw and the lysate was neutralized with 2 M HEPES, pH 7.5. cAMP was measured in 50 μl aliquots using the [^3H]-cAMP assay system (Amersham).
(§2) This experiment was first performed on CB2 receptor transfected cells.

[2] = molecular target: T1, human CB1 receptor (Homo sapiens, UniProt P21554); assay: biochemical; type: binding; details: CB1 IC50
T1 construct: purchased Perkin Elmer/NEN; host or cells: HEK-293 cells, stably transfected (membranes)
Procedure, shortened: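 Displacement of [3H]CP55940 from membranes of HEK-293 cells stably expressing human CB1, in 50 mM Tris-HCl, 2.5 mM EDTA, 5 mM MgCl2, 1 mg/ml BSA, pH 7.4, 0.1% DMSO; 1.5 h at 30° C, then filtration.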

[3] = molecular target: T1, human CB1 receptor; assay: Adenylylcyclase assay: forskolin-activated cAMP in CB1 transfected HEK-293 cells; type: cell-based
Method: as §1, §2

[4] = test system: male Sprague-Dawley rats; assay: Chronic constriction nerve injury, neuropathic pain (Von Frey filaments); type: in vivo, rat; details: 4 mg/kg i.p., 15 minutes
Description: The aim of this study was to assess the potential analgesic effects of the novel bicyclic CB2 binding compounds in an animal model of neuropathic pain. A peripheral monopathy was induced in the right hind limb of rats following a chronic constriction of the sciatic nerve (Bennet, G. J. & Xie, Y-K., Pain 33: 87-107, 1988). The development of mechanical allodyna was monitored using an established behavioral test (Von Frey filaments).
Pre-surgery baseline values were ascertained as the mean of 2 pre-surgery values. Once the baseline values had been established, the animals were surgically prepared by constricting the right sciatic nerve with 4 chromic cat gut loose ligatures.
The design was randomized, performed in a masked fashion as to whether drug or vehicle is being given. The animals, male Sprague-Dawley rats (average body weight 240-290 g), were allowed to acclimatize to the behavioral testing equipment prior to testing. On the testing day, the animals, at least six per treatment group, were given i.p. a single dose of one of the test compounds in a volume of 2.5 ml/kg. Fifteen minutes later, a series of Von Frey filaments (pre-calibrated prior to testing) were applied to the plantar surface of the hind paw, from below. The filaments were applied in ascending order starting with the weakest force and the withdrawal threshold for both the ipsilateral and contralateral hind paws was evaluated. Each filament was indented on the mid-plantar surface of the foot to the point where it just starts to bend; this is repeated approximately 8-10 times per filament at a frequency of approximately 1 Hz. The withdrawal threshold is defined as being the lowest force of two or more consecutive Von Frey's filaments to elicit a reflex withdrawal response (i.e. a brief paw flick) and is measured in grams.
The results are expressed as % increase in the threshold of response to Von Frey's filaments in the test compound treated group versus the vehicle treated animals and per definition the vehicle treated group yields a null baseline value. The black column represents the morphine treated animals (4 mg/kg), the gray and the dotted column bars represent two doses of compound A (0.5 and 1 mg/kg respectively).

[5] = test system: Male Sprague Dawley rats; assay: Inflammatory pain: carrageenan paw edema in rats, thermal and mechanical stimuli; type: in vivo, rat; details: 5 mg/kg, three hours
Method: Male Sprague Dawley rats (200 g average body weight, Harlan, Israel) are transiently sedated by placement on dry ice for the duration of the injections. […] Before induction of inflammatory pain and three hours after injection, the animals reactions to pain stimuli were tested in two systems. The first stimulus was thermal and assessed by the Plantar Test according to Hargreaves, using Ugo Basile Model 7370. The scale was set to an intensity of 50 arbitrary units. The latency time till the animal lift a paw as a reaction to the thermal stimulus was recorded for both the inflamed and non-inflamed hind paws. The second stimulus was mechanical (tactile) and assessed using a Dynamic Plantar Sesthesiomether (Ugo Basile Model 73400-002).
The results are measured as the differences between the two hind paws at time 0 and 3 hours both as ALT, for the latency time in the thermal part of the study, and as ΔForce, for the mechanical part of the study.

[6] = test system: ICR male mice; assay: Tail flick model for acute peripheral pain, i.p.; type: in vivo, mouse; details: 5 mg/kg i.p.
Method: (§3) ICR male mice (20-30 g average body weight, Harlan, Israel) were injected i.p. at the volume dose of 5 ml/kg. Each treatment group contained at least 6 animals. Morphine HCl was used as positive control at the final dose of 5 mg/kg. Its vehicle, saline, was also included as control. The test compounds were dissolved in CREMOPHOR EL®:ethanol and diluted 1:20 in saline prior to injection, this second type of vehicle was also included as negative control. The final dose injected varied from 0.1 to 10 mg/kg. At predetermined time points after treatment injection, the animals were placed in the tail flick system (Socrel, model DS 20). Animals were gently held while their tails were located above the photoelectric cell. The tails were then illuminated (21V) at 2 cm from the distal tip and the latency time, measured in seconds, was recorded in duplicates. At the end of the study, the animals were euthanized by i.p. injection of 100 mg/kg sodium pentobarbitone.
Two parameters were used to analyze the results, the latency time and the % of animals showing analgesia. […] The results in both cases are expressed as mean±SE. The differences between the latency times or the % of animals showing analgesia among various treatment groups was analyzed by analysis of variance (ANOVA) followed by post-hoc Tukey's test (for latency) or Fisher's exact test (for % animals). A value of p<0.05 is considered to be statistically significant.

[7] = test system: ICR male mice; assay: Development of tolerance on repeated administration, tail flick model; details: 5 mg/kg twice daily i.p.
Method: as §3
Tolerance was assessed in the tail flick model above described. Briefly, the test compounds were administered twice daily i.p. for up to 10 days to groups of 10 animals each. The noxious pain threshold was measured as previously described in example 13 thirty minutes after the first drug administration on days 1, 4, 8 and 10. Results are expressed as mean latency time till the animal flicked its tail±SE. The differences between the latency times or the % of animals showing analgesia among various treatment groups was analyzed by analysis of variance (ANOVA) followed by post-hoc Tukey's test (for latency) or Fisher's exact test (for % animals). A value of p<0.05 is considered to be statistically significant.

T1 sequence (P21554 whole entry): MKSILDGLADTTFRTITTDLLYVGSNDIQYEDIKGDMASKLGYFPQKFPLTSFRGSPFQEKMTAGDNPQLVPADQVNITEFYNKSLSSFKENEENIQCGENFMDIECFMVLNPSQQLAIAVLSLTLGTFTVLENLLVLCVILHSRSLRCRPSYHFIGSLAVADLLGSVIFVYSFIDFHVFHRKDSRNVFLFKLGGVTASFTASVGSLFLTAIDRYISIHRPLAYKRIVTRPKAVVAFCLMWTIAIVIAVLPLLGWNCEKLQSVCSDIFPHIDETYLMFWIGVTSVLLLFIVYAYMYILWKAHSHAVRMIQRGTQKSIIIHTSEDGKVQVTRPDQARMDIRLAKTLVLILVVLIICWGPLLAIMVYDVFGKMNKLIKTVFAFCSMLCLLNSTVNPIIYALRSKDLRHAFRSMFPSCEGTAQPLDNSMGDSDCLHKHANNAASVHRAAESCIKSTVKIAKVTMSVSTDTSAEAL
Sequence of human CB2 receptor (P34972 whole entry): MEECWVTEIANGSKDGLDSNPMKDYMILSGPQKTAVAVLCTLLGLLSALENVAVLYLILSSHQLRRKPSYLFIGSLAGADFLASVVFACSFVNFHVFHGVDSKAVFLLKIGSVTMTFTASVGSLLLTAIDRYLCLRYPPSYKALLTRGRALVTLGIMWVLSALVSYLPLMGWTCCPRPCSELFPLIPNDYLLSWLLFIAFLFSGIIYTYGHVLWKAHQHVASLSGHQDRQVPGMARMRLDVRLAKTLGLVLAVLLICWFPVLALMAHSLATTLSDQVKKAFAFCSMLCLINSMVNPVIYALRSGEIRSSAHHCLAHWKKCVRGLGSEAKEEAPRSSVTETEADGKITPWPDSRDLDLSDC

SMILES	inhibition at 1 µM [1] [%]	pIC50 [2]	pIC50 [3]	inhibition at 1 µM ([3]; HEK293, CB1 transfected HEK-293, 1 μM forskolin, read-out: maximal inhibition at 1 μM) [%]	increase in pain threshold (Von Frey) versus vehicle, ipsilateral hind paw [4] [%]	ΔForce (tactile stimulus) [5] [grams]	ΔLT (thermal stimulus) [5] [s]	latency time ([6]; 30 minutes) [s]	% animals showing analgesia ([6]; 90 minutes)	latency time ([6]; 90 minutes) [s]	latency time ([6]; five and a half hour) [s]	% animals showing increased analgesia ([6]; five and an half hours) [%]	% animals showing increased analgesia ([6]; half-an hour) [%]	latency time ([6]; two and a half hour) [s]	% of animals showing increased analgesia ([7]; day 10) [%]	latency time ([7]; day 10) [s]	% of animals showing increased analgesia ([7]; day one) [%]	latency time ([7]; day one) [s]
CCCCCCC(C)(C)c1cc(O)c2c(c1)OC(C)(C)[C@@H]1CC=C(CO)C[C@@H]21 [HU-210, 7-hydroxy-Δ^6-tetrahydrocannabinol-1,1-dimethyl-heptyl, reference compound]	50	9.41	9.46	73														
CN1CC[C@]23c4c5ccc(O)c4O[C@H]2[C@@H](O)C=C[C@H]3[C@H]1C5 [Morphine, reference compound]					91	2.7	0	7.5	about 40%	3.9	3.6	17	88	3.1	30	5.8	80	7.5
